Entries after “also recorded” stand apart in the source; their conditions may differ.
Assays:
[1] = Standing of the free base at room temperature after neutralization (TLC); assay type: physicochemical; details: light yellow oil after NaHCO3 wash
Protocol: Dichloromethane (10 mL) was added and the solution was washed with saturated NaHCO3 solution, dried, and evaporated in vacuo. A light yellow oil was obtained, which, on standing at room temperature, turned dark red. […] Selected ^1H NMR signals after neutralization: δ2.72 (s, 3H, CH3), 3.09 and 3.35 (t, J=5 Hz, 8H, piperazine), 7.08 (s, 1H, 5-H), 8.02 (s, 1H, 1-H).

[2] = molecular target: amyloid plaques in Alzheimer's brain (Homo sapiens, UniProt P05067); details: cited from earlier work
amyloid plaques in Alzheimer's brain, sequence (P05067 672-713 limits assumed): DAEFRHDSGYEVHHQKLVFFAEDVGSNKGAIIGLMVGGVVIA

[3] = test system: β-amyloid plaques and neurofibrillary tangles; assay: PET imaging of patients after intravenous [F-18]FDDNP; assay type: in vivo, human
Protocol: A patient was placed in a tomograph to obtain brain dynamic PET images. 8.0 mCi of 2-(1.1-dicyanopropen-2-yl)-6-(2-[^18F]-fluoroethyl)-methylamino)-naphthalene ([F18]FDDNP) (specific activity: 5-12 Ci/micromol; mass:˜1 nanomol), prepared as described in Example 1(f), were injected intravenously into the arm of the patient. Dynamic acquisition data of brain images were recorded simultaneously in forty-seven brain planes for two hours.
Labeling and detection of human β-amyloid plaques and neurofibrillary tangles in vivo were conducted using the following procedures. Ten human subjects, seven Alzheimer's diseased patients (ages 71 to 80) and three control patients (ages 62 to 82) were studied. The patients were positioned supine in an EXACT HR+962 tomograph (Siemens-CTI, Knoxville, Tenn.) with the imaging plane parallel to the orbito-meatal line. Venous catheterization was performed, and then [F-18]FDDNP (5-10 mCi) in human serum albumin (25%) was administered as a bolus via the venous catheter. Sequential emission scans were obtained beginning immediately after [F-18]FDDNP administration using the following scan sequence: six 30 second scans, four 3 minute scans, five 10 minute scans, and three 20 minute scans. Rapid venous blood sampling was performed via the indwelling catheter in two subjects for input function determination and plasma metabolite analysis.
The residence time shown is in reference to that in the pons, an area known to have limited involvement in Alzheimer's disease pathology. The residence time was calculated from the clearance rates of the tracer in affected regions of interest (ROI) and in the pons as:
Residence time=[1/clearance rate for affected ROI]−[1/clearance rate for pons]
Separate ROIs were defined in entorhinal cortex, hippocampus, lateral temporal cortex and pons. The region with the slowest clearance rate was used as the affected ROI in the calculation of the residence time shown in FIG. 4.

[4] = test system: β-amyloid plaques and neurofibrillary tangles; assay: In vitro autoradiography with brain specimens of Alzheimer diseased patients; assay type: binding, human
[5] = test system: β-amyloid plaques and neurofibrillary tangles; assay: In vitro fluorescence labeling of Alzheimer's disease brain tissue sections; assay type: binding, human; details: for visualization of neurofibrillary tangles, amyloid peptides and diffuse amyloid: all Alzheimer's disease brain specimens, fluorescence; for fluorescent labeling of amyloid plaques: sections of Alzheimer's disease patient brain, fluorescence microscope
Protocol: (§1) A 2.1 mg/mL DDNP stock solution was prepared, which was adjusted to 8 mM in 100% ethanol. A DDNP working solution was prepared by diluting the stock solution with distilled water in a ratio of 1:100-1000 (stock solution:distilled water).
(§2) β-amyloid 250 μM (1.25 mg/mL in distilled water) was aggregated at 37° C. for 48 hours. 5 μL were smeared on slides, air-dried and then rehydrated with distilled water. Alternatively, Aβ-positive brain tissue sections were rehydrated with distilled water. DDNP working solution was applied to each slide for 30 minutes at room temperature. The slides were washed three times for five minutes with distilled water. The slides were coverslipped with fluorescent protectant mounding media (Vectashield™, available Vector Labs., Burlingame, Calif.) and observed under a fluorescence microscope with a thioflavin S or FITC filter.
Since DDNP and its derivatives are fluorescent, an evaluation of the ability of [F-18]FDDNP to label β-amyloid plaques and neurofibrillary tangles in vitro was also performed with the same brain specimens.
In FIG. 5, the central image was obtained by immunostaining a forty five micrometer cryostate temporal cortex section of an Alzheimer's disease patient incubated with AT8 (anti-phosphotau) and 10G4 (anti-AB1-15) at 1:800. Insets are adjacent sections of the same Alzheimer's disease brain specimen stained with FDDNP. Images were generated using fluorescent scanning microscopy. Green arrows indicate approximate origin of inset with reference to central immunostaining section.

β-amyloid 1-40 = molecular target: T1, β-amyloid 1-40 (Homo sapiens, UniProt P05067); assay: Labeling of aggregated β-amyloid dried onto a slide; assay type: binding; details: aggregated 8 days at 37° C., dried onto gelatin coated slide
T1 construct: an aliquot of β-amyloid 1-40 was allowed to aggregate
T1 sequence (P05067 672-711 limits assumed): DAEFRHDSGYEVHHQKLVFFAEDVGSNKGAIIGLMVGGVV
Protocol: as §2, with “β-amyloid 250 μM (1.25 mg/mL in distilled water) was aggregated at 37° C. for 48 hours.” left out

[6] = molecular target: T2, aggregated β-amyloid 1-40 injected into rat cortex (Homo sapiens, UniProt P05067); assay: In vivo labeling of aggregated β-amyloid injected into rat cortex
T2 construct: an aliquot of β-amyloid 1-40 was allowed to aggregate
T2 sequence (P05067 672-711 limits assumed): as above
Protocol: β-amyloid 250 μM (1.25 mg/mL in distilled water) was aggregated at 37° C. for 48 hours to produce fibrils confirmed by smears. Three rats were anesthetized. 3 μL of a solution of Aβ fibrils (1.25 μg/μL) were injected unilaterally into the cortex of each rat (Bregma 0, AP-4.1 mm, ML+2.0 mm, DV-3.1 mm). Then 3 μL of phosphate buffered saline (PBS) were injected into the contralateral side of each rat brain as a vehicle control. After injection, the needle remained for 5 minutes to prevent reflux, and then the cranial hole was sealed with bone wax. […]
[…] Additional immersion fixation of rat brain was at 4° C. overnight with PLP fixative. The rat brains were washed with PBS, saturated in 10 and 20% sucrose, and snap frozen in chilled isopentane (−70° C.) with liquid nitrogen. The brains were cryostat sectioned at […] around the needle-track and directly coverslipped with glycerol and fluorescence protectant (Vectashield™).

[7] = molecular target: T3, plaque in Tg2576 HuAPPsw transgenic mouse brain (Homo sapiens, UniProt P05067); assay: In vitro fluorescence labeling of transgenic mouse brain section; assay type: binding
T3 construct: from tissue; host or cells: brain section of Tg2576 HuAPPsw transgenic mouse
T3 sequence (P05067 672-713 limits assumed): as the sequence (P05067 672-713 limits assumed) above
Protocol: as §2, with “A 2.1 mg/mL DDNP stock solution was prepared, which was adjusted to 8 mM in 100% ethanol. A DDNP working solution was prepared by diluting the stock solution with distilled water in a ratio of 1:100-1000 (stock solution:distilled water). β-amyloid” for “β-amyloid”, “(VectashieldTM,” for “(Vectashield™,”

[8] = Storage of stock solution in the freezer; assay type: physicochemical; details: stock in 100% ethanol, used at 1/100 to 1/1,000 dilutions
Protocol: as §1

For `CC(=C(C#N)C#N)c1ccc2cc(N3CCNCC3)ccc2c1` [2-[1-(6-piperazino-2-naphthyl)ethylidene]malononitrile], the “stability on standing at room temperature” value [1] was “decomposition”.
In the case of `CC(=O)c1ccc2cc(N3CCN(C(=O)OC(C)(C)C)CC3)ccc2c1` [Example 1(d), tert-Butyl-4-(6-acetyl-2-naphthyl)-1-piperazinecarboxylate], the melting point is reported as 153 to 154 °C.
In the case of `O=C(O)c1cc(/N=N/c2ccc(-c3ccc(/N=N/c4ccc(O)c(C(=O)O)c4)cc3)cc2)ccc1O` [Chrysamine G], the “ability to label amyloid plaques in Alzheimer's brain” value [2] is listed as “weak”.
With `CC(=C(C#N)C#N)c1ccc2cc(N(C)CC[18F])ccc2c1` [[F-18]FDDNP] the “estimated residence time in reference to pons” value ([3]; Alzheimer's diseased patients vs control patients, affected ROI with slowest clearance rate) was “different from values in control patients”, the “labeling of brain structures / accumulation of label” value ([3]; human patient, 8.0 mCi intravenously, dynamic PET for two hours) was “labels brain by structures in a manner consistent with the presence of beta amyloid plaques and neurofibrillary tangles; also recorded: maximum accumulation” and the “regional clearance from brain” value ([3]; human, brain areas known to accumulate β-amyloid plaques and neurofibrillary tangles) was “slower clearance”. The “crossing of the blood brain barrier” value ([3]; human, intravenous injection) was “crosses the blood brain barrier readily in proportion to blood flow”, the “retention of activity in hippocampus-amygdala-entorhinal cortex” value ([3]; human, most cases, even patients with low severity of symptoms) was “high retention” and the “binding / distribution of activity in autoradiography” value [4] was “Binding was observed in hippocampus, temporal and parietal cortex”. For the same molecule, the “visualization of neurofibrillary tangles, amyloid peptides and diffuse amyloid” value [5] was “excellent visualization” and the “structures stained (FIG. 5 insets)” value ([5]; temporal cortex sections of an Alzheimer's disease patient, fluorescent scanning microscopy) was “(1) neuritic plaques, (2) diffuse plaque, (3) vascular amyloid, (4) dense plaques and tangles, and (5) dense tangles”.
In the case of Thioflavin S [reference compound], the “fluorescent labeling of amyloid plaques” value [5] is reported as “labeling of a cored plaque”.
For `CC(=C(C#N)C#N)c1ccc2cc(N(C)C)ccc2c1` [DDNP, 2-(1,1-dicyanopropen-2-yl)-6-dimethylaminonaphthalene], the melting point was 154.5 to 155 °C, the “fluorescence of labeled aggregated β-amyloid 1-40” value (β-amyloid 1-40) was “fibrillar fluorescence consistent with amyloid” and the “fluorescent labeling after formic acid treatment of section through the injection site” value ([6]; rat) was “removes fluorescent labeling”. For the same molecule, the “in vivo fluorescent labeling of injected amyloid” value ([6]; rat, 100 μL of 640 μM DDNP into the carotid artery, sacrificed after 20 minutes, brain cryosections) was “fluorescently labeled amyloid at the tip of the need track”, the “labeling contralateral to the amyloid injection site” value ([6]; rat, side where no amyloid is present) was “weak” and the “passage of the blood brain barrier” value ([6]; rats) was “passes the blood brain barrier”. For the same molecule, the “fluorescent labeling of plaque” value [7] was “labeling of a plaque”, the “stability of stock solution” value [8] was “can be kept in the freezer for six months and still produce acceptable results” and the “visualization of neurofibrillary tangles, amyloid peptides and diffuse amyloid” value [5] was “excellent visualization”. The “fluorescent labeling of tangles” value ([5]; cortex of the brain of an Alzheimer's disease patient) was “weak” and the “fluorescent labeling of amyloid plaques” value [5] was “able to label amyloid plaques; also recorded: readily labeled amyloid deposits; also recorded: amyloid plaques labeled; also recorded: strong; also recorded: labeling of a single, large plaque with an amyloid core”.

Reference: patent publication US6660530B2, “Methods for labeling β-amyloid plaques and neurofibrillary tangles” (The Regents of the University of California, priority 1998, dated 2003)
